According to patent publication US20260217701A1, “SELECTIVE BET INHIBITORS AND USES THEREOF” (Tay Therapeutics Limited, priority 2022, published 2026):
Entries after “also recorded” stand apart in the source; their conditions may differ. Read-outs that look alike come from different tables or passages of the source.

Legend:
[1] = system: collagen-induced arthritis; conditions: for average overall clinical score at plateau: around day 18-19
Protocol: (§1) The emulsion was cooled in an ice water bath during the formulation. The final concentration of collagen was 1 mg/mL. The emulsion is prepared fresh immediately prior to injection.
as §1
Experimental groups for the study are outlined in Table 5A. […] Animals in group one received no immunization.
IHC markers for staining were selected after evaluating clinical and histopathological scores for animals. After the skin was removed, the right hind limb was snap frozen in liquid nitrogen and RNA and protein analysis was performed.
Blood samples were collected from animals in groups 1-7 via cardiac puncture following euthanasia on Day 21. […] Serum was divided into two separate tubes and stored at −75±15° C. One tube was used to analyze IgG1, and the other tube was reserved for additional analyses.
H&E-stained slides of designated tissues from animals were transferred to an independent pathologist for microscopic evaluation (SPFBio). Samples were assigned the histologic grades based on the severity of change from tissue where CIA was not induced. Histology grades assigned were as follows: grade 1 (minimal change), grade 2 (mild change), grade 3 (moderate change), grade 4 (marked change), and grade 5 (severe change). A grade may be assigned for each indicator of disease severity: inflammation, mixed cell; granulation tissue; increased bone, periosteum; increased eroded surface, bone and erosion/ulcer, cartilaginous. […] Moderate inflammation was also associated with increased edema fluid, fibrin, and cellular debris. Marked mixed cell inflammation was characterized by dense, widespread accumulations of neutrophils and macrophages with lesser number of lymphocytes within one or more joint spaces, synovium and periarticular soft tissues. Marked inflammation was also associated with abundant edema fluid, fibrin, and cellular debris.
Marked granulation tissue (pannus) was associated with inflammation and was characterized by widespread fibrovascular connective tissue that expanded/replaced the periarticular soft tissues of one or more joints, extended into/expanded joint spaces, was contiguous with areas of erosion/ulcer in articular cartilage and/or increased eroded surface of bone, and variably extended along the diaphysis.
Marked increased periosteal bone (periosteal bone formation) was characterized by extensive areas of increased bone matrix and numerous prominent osteoblasts lining trabecular surfaces along the metaphysis and/or diaphysis of one or more bones.

[2] = system: collagen-induced arthritis; experiment: CIA model: histopathologic analysis of hind limbs; assay type: in vivo, Lewis rats; conditions: for Erosion/Ulcer, cartilaginous, Marked (number of animals) / Erosion/Ulcer, cartilaginous, Mild (number of animals) / Erosion/Ulcer, cartilaginous, Minimal (number of animals) / Erosion/Ulcer, cartilaginous, Moderate (number of animals) / Granulation tissue, Marked (number of animals) / Granulation tissue, Mild (number of animals) / Granulation tissue, Minimal (number of animals) / Granulation tissue, Moderate (number of animals) / Increased bone, periosteum, Marked (number of animals) / Increased bone, periosteum, Mild (number of animals) / Increased bone, periosteum, Minimal (number of animals) / Increased bone, periosteum, Moderate (number of animals) / Increased eroded surface, bone, Marked (number of animals) / Increased eroded surface, bone, Mild (number of animals) / Increased eroded surface, bone, Minimal (number of animals) / Increased eroded surface, bone, Moderate (number of animals) / Mixed cell inflammation, Marked (number of animals) / Mixed cell inflammation, Mild (number of animals) / Mixed cell inflammation, Minimal (number of animals) / Mixed cell inflammation, Moderate (number of animals) / No Visible Lesions (number of animals): hind limbs, CIA induced, 8 animals examined
Description: Mean histopathologic scores for tissue samples from animals in Groups 1-6 are depicted in FIG. 22A, and day 21 histology scores for all animals are illustrated in FIG. 22B.

[3] = Group 5 (CIA + Compound A 1 mg/kg), 1 mg/kg
[4] = Group 6 (CIA + Compound A 3 mg/kg)
[5] = Group 7 (CIA + Compound A 10 mg/kg), two out of eight samples

Compound: Cn1cc(-c2ccccc2)c(-c2cn(C)c(=O)c3[nH]c(-c4cnn(C(F)(F)F)c4)cc23)cc1=O [Compound A, 6-methyl-4-(1-methyl-2-oxo-5-phenyl-1,2-dihydropyridin-4-yl)-2-(1-(trifluoromethyl)-1H-pyrazol-4-yl)-1,6-dihydro-7H-pyrrolo[2,3-c]pyridin-7-one]
- plateau increase in paw volume relative to day 0 ([1]; 1 mg/kg (group 5), around day 18): approximately 50%
- animals exhibiting disease ([1]; 1 mg/kg (group 5), day 14): 5/8
- animals exhibiting disease ([1]; 1 mg/kg (group 5), day 18): 7/8
- percent inhibition in clinical score relative to GSK620 ([1]; 1 mg/kg and 3 mg/kg vs GSK620 10 mg/kg): nearly twice as high
- percent inhibition of increase in paw volume relative to GSK620 ([1]; 1 mg/kg or 3 mg/kg vs GSK620 10 mg/kg): more than twice
- plateau increase in paw volume relative to day 0 ([1]; 3 mg/kg): approximately 40%
- animals exhibiting disease ([1]; 3 mg/kg (group 6), day 15): 4/8
- animals exhibiting disease ([1]; 3 mg/kg (group 6), day 18): all animals
- animals exhibiting disease ([1]; 10 mg/kg (group 7), day 15): 4/8
- animals exhibiting disease ([1]; 10 mg/kg (group 7), day 18): 7/8
- decrease in paw volume relative to CIA+Vehicle ([1]; 10 mg/kg PO QD, Day 21): ~79%
- reduction in clinical score compared to vehicle-treated animals ([1]; 10 mg/kg PO QD, Day 21): ~71%
- rat anti-collagen IgG1 antibodies, lower than vehicle treated animals ([1]; 10 mg/kg, day 21, serum): > 98%
- plateau increase in paw volume relative to day 0 ([1]; 10 mg/kg, Group 7): approximately 35%
- rat anti-collagen IgG1 antibodies relative to untreated CIA animals ([1]; 1, 3 and 10 mg/kg, day 21, p<0.01): significantly decreased
- average overall clinical score at plateau ([1]; group 5 (1 mg/kg)): 5
- average overall clinical score at plateau ([1]; group 6 (3 mg/kg)): 4
- average overall clinical score at plateau ([1]; group 7 (10 mg/kg)): 4
- Samples with no pathologic observations ([2]; 1 mg/kg, Group 5): One out of eight
- Samples with no pathologic observations ([2]; 3 mg/kg, Group 6): Two out of eight
- Samples with no pathologic observations ([2]; 10 mg/kg, Group 7): Six out of eight
- Animals exhibiting normal limb/joint pathology ([2]; 10 mg/kg, day 21): 6/8
- Erosion/ulcer in articular cartilage, grade [2, 3]: mild and mild to moderate
- Granulation tissue (pannus), grade [2, 3]: mild and mild to moderate
- Increased eroded surface of bone (bone resorption), grade [2, 3]: mild and mild to moderate
- Increased periosteal bone (periosteal bone formation), grade [2, 3]: mild and mild to moderate
- Mixed cell inflammation, grade [2, 3]: moderate to marked
- Erosion/ulcer in articular cartilage, grade [2, 4]: mild
- Increased eroded surface of bone (bone resorption), grade [2, 4]: mild
- Increased periosteal bone (periosteal bone formation), grade [2, 4]: mild
- Mixed cell inflammation, grade [2, 4]: moderate
- Granulation tissue (pannus), grade ([2]; Group 6 (CIA + Compound A 3 mg/kg), 3 mg/kg): mild and mild to moderate
- Histopathological observations, representative sample/image ([2]; Group 7 (CIA + Compound A 10 mg/kg), FIG. 23G, 23I, 10 mg/kg): no histopathological observations noted; also recorded: normal joint pathology
- Erosion in the articular cartilage, grade [2, 5]: mild
- Granulation tissue (pannus), grade [2, 5]: mild
- Increased periosteal bone (periosteal bone formation), grade [2, 5]: minimal
- Mixed cell inflammation, grade [2, 5]: mild to moderate
- Pathologic observations relative to CIA-induced group (Group 2) ([2]; Groups 5-7 (Compound A 1, 3, 10 mg/kg)): all decreased in severity, extent, and distribution
- Severity of arthritic histopathology versus vehicle- and GSK620-treated animals ([2]; all tested doses (1, 3, 10 mg/kg)): dose-dependent reduction in the severity of arthritic histopathology; also recorded: significant dose-dependent decrease in the incidence and severity of collagen-induced arthritis
- Erosion/Ulcer, cartilaginous, Marked (number of animals) ([2]; 1 mg/kg): 0
- Erosion/Ulcer, cartilaginous, Mild (number of animals) ([2]; 1 mg/kg): 6
- Erosion/Ulcer, cartilaginous, Minimal (number of animals) ([2]; 1 mg/kg): 0
- Erosion/Ulcer, cartilaginous, Moderate (number of animals) ([2]; 1 mg/kg): 1
- Granulation tissue, Marked (number of animals) ([2]; 1 mg/kg): 0
- Granulation tissue, Mild (number of animals) ([2]; 1 mg/kg): 3
- Granulation tissue, Minimal (number of animals) ([2]; 1 mg/kg): 0
- Granulation tissue, Moderate (number of animals) ([2]; 1 mg/kg): 3
- Increased bone, periosteum, Marked (number of animals) ([2]; 1 mg/kg): 0
- Increased bone, periosteum, Mild (number of animals) ([2]; 1 mg/kg): 4
- Increased bone, periosteum, Minimal (number of animals) ([2]; 1 mg/kg): 1
- Increased bone, periosteum, Moderate (number of animals) ([2]; 1 mg/kg): 0
- Increased eroded surface, bone, Marked (number of animals) ([2]; 1 mg/kg): 0
- Increased eroded surface, bone, Mild (number of animals) ([2]; 1 mg/kg): 3
- Increased eroded surface, bone, Minimal (number of animals) ([2]; 1 mg/kg): 0
- Increased eroded surface, bone, Moderate (number of animals) ([2]; 1 mg/kg): 2
- Mixed cell inflammation, Marked (number of animals) ([2]; 1 mg/kg): 0
- Mixed cell inflammation, Mild (number of animals) ([2]; 1 mg/kg): 2
- Mixed cell inflammation, Minimal (number of animals) ([2]; 1 mg/kg): 1
- Mixed cell inflammation, Moderate (number of animals) ([2]; 1 mg/kg): 4
- No Visible Lesions (number of animals) ([2]; 1 mg/kg): 1
- Erosion/Ulcer, cartilaginous, Marked (number of animals) ([2]; 3 mg/kg): 0
- Erosion/Ulcer, cartilaginous, Mild (number of animals) ([2]; 3 mg/kg): 3
- Erosion/Ulcer, cartilaginous, Minimal (number of animals) ([2]; 3 mg/kg): 3
- Erosion/Ulcer, cartilaginous, Moderate (number of animals) ([2]; 3 mg/kg): 0
- Granulation tissue, Marked (number of animals) ([2]; 3 mg/kg): 0
- Granulation tissue, Mild (number of animals) ([2]; 3 mg/kg): 4
- Granulation tissue, Minimal (number of animals) ([2]; 3 mg/kg): 0
- Granulation tissue, Moderate (number of animals) ([2]; 3 mg/kg): 2
- Increased bone, periosteum, Marked (number of animals) ([2]; 3 mg/kg): 0
- Increased bone, periosteum, Mild (number of animals) ([2]; 3 mg/kg): 4
- Increased bone, periosteum, Minimal (number of animals) ([2]; 3 mg/kg): 2
- Increased bone, periosteum, Moderate (number of animals) ([2]; 3 mg/kg): 0
- Increased eroded surface, bone, Marked (number of animals) ([2]; 3 mg/kg): 0
- Increased eroded surface, bone, Mild (number of animals) ([2]; 3 mg/kg): 3
- Increased eroded surface, bone, Minimal (number of animals) ([2]; 3 mg/kg): 2
- Increased eroded surface, bone, Moderate (number of animals) ([2]; 3 mg/kg): 0
- Mixed cell inflammation, Marked (number of animals) ([2]; 3 mg/kg): 0
- Mixed cell inflammation, Mild (number of animals) ([2]; 3 mg/kg): 2
- Mixed cell inflammation, Minimal (number of animals) ([2]; 3 mg/kg): 0
- Mixed cell inflammation, Moderate (number of animals) ([2]; 3 mg/kg): 4
- No Visible Lesions (number of animals) ([2]; 3 mg/kg): 2
- Erosion/Ulcer, cartilaginous, Marked (number of animals) ([2]; 10 mg/kg): 0
- Erosion/Ulcer, cartilaginous, Mild (number of animals) ([2]; 10 mg/kg): 1
- Erosion/Ulcer, cartilaginous, Minimal (number of animals) ([2]; 10 mg/kg): 1
- Erosion/Ulcer, cartilaginous, Moderate (number of animals) ([2]; 10 mg/kg): 0
- Granulation tissue, Marked (number of animals) ([2]; 10 mg/kg): 0
- Granulation tissue, Mild (number of animals) ([2]; 10 mg/kg): 1
- Granulation tissue, Minimal (number of animals) ([2]; 10 mg/kg): 0
- Granulation tissue, Moderate (number of animals) ([2]; 10 mg/kg): 0
- Increased bone, periosteum, Marked (number of animals) ([2]; 10 mg/kg): 0
- Increased bone, periosteum, Mild (number of animals) ([2]; 10 mg/kg): 0
- Increased bone, periosteum, Minimal (number of animals) ([2]; 10 mg/kg): 0
- Increased bone, periosteum, Moderate (number of animals) ([2]; 10 mg/kg): 0
- Increased eroded surface, bone, Marked (number of animals) ([2]; 10 mg/kg): 0
- Increased eroded surface, bone, Mild (number of animals) ([2]; 10 mg/kg): 0
- Increased eroded surface, bone, Minimal (number of animals) ([2]; 10 mg/kg): 1
- Increased eroded surface, bone, Moderate (number of animals) ([2]; 10 mg/kg): 0
- Mixed cell inflammation, Marked (number of animals) ([2]; 10 mg/kg): 0
- Mixed cell inflammation, Mild (number of animals) ([2]; 10 mg/kg): 1
- Mixed cell inflammation, Minimal (number of animals) ([2]; 10 mg/kg): 0
- Mixed cell inflammation, Moderate (number of animals) ([2]; 10 mg/kg): 1
- No Visible Lesions (number of animals) ([2]; 10 mg/kg): 6
